Measurements: PMC9737838, “Long-Distance Protonation-Conformation Coupling in Phytochrome Species” (Molecules, 2022)

Biological target: T1, Agp1-PGP (photosensory module PAS-GAF-PHY of Agp1) (Agrobacterium fabrum, UniProt Q7CY45)
T1 construct: gene Atu1990; photosensory module PAS-GAF-PHY, residues 1-504, C-terminal His6 tag; apoprotein from E. coli assembled with biliverdin; plasmids with and without deletion of the first 9 residues used for mutagenesis
T1 sequence (Q7CY45 1-495): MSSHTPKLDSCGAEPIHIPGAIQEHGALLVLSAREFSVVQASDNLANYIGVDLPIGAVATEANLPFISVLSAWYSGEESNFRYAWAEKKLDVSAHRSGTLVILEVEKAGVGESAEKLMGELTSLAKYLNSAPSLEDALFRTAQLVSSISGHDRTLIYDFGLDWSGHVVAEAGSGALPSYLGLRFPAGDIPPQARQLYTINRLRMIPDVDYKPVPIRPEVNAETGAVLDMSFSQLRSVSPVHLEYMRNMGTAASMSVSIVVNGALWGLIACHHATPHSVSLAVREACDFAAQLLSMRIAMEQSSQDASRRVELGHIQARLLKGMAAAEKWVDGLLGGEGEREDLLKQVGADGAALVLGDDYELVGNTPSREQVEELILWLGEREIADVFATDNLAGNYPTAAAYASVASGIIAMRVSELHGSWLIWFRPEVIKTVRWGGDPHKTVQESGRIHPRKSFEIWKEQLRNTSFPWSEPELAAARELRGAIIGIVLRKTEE
Experiment: UV-Vis absorption of the assembled holoprotein, pH titration
Assay type: binding
Conditions: covalent, Cys20; Pr state, 702 nm band, 300 mM NaCl, 50 mM Tris, 20 °C

C=CC1=C(C)/C(=C/C2=NC(=C\c3[nH]c(/C=C4\NC(=O)C(C)=C4C=C)c(C)c3CCC(=O)O)/C(CCC(=O)O)=C2C)NC1=O [BV, biliverdin]
UV-Vis absorption of the assembled holoprotein, pH titration: The apoprotein was expressed and assembled with BV according to established protocols
